Experiment [1] has as its target mouse CLEC-2 (Fc-mCLEC-2) (Mus musculus, UniProt Q9JL99). Nature of the experiment: biochemical.
Experiment [2] addresses human CLEC-2 (hFc-CLEC-2) (Homo sapiens, UniProt Q9P126). Nature of the experiment: biochemical.

SMILES strings stand for the structures.

Broadly, the Kd is a measure of binding affinity in units of concentration. Low readings indicate higher affinity, high ones lower affinity.

Sequence of human CLEC-2 (hFc-CLEC-2) (Q9P126 55-229 limits assumed): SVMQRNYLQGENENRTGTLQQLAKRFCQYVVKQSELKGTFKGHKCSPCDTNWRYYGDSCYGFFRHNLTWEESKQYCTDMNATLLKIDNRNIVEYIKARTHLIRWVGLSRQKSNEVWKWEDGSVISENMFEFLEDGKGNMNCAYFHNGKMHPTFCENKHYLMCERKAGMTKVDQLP
Sequence of mouse CLEC-2 (Fc-mCLEC-2) (Q9JL99 53-229 limits assumed): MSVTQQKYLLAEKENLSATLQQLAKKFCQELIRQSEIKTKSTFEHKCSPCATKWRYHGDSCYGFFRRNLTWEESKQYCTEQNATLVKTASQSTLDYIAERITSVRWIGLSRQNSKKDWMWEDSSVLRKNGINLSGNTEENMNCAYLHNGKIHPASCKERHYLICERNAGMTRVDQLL

`C=CC1=C(C)C2=Cc3c(C=C)c(C)c4[n]3[Fe]([Cl])[n]3c(c(C)c(CCC(=O)O)c3=CC3=NC(=C4)C(C)=C3CCC(=O)O)=CC1=N2` [hemin]: the equilibrium dissociation constant (Kd) in experiment [1] and in experiment [2] was approximately 0.2 µM throughout.

Values taken from publication PMC7849553 (Haematologica, 2020).
